Experimental findings from ChEMBL document CHEMBL1128989, “-Methanesulfonyl-L-valine as a novel, unnatural amino acid surrogate for P2 in the design of HIV protease inhibitors” (Bioorg Med Chem Lett, 1996) are described below.

Molecules are shown by their SMILES. pKi: −log10 of the molar value.

A short description of assay [1]: Ratio of IC50/Ki was determined.
In assay [2] the target is Human immunodeficiency virus type 1 protease (Human immunodeficiency virus 1, UniProt Q72874). Description: Inhibitory activity against P2 site in HIV protease.
The subject of assay [3] is Human immunodeficiency virus 1. Kind of assay: Antiviral activity against PBMC infected with Human immunodeficiency virus type 1 NL4-3 isolate. Type of assay: functional.

By pKi is commonly meant the Ki on a negative log10 scale, so that one unit is a factor of ten. Low values mean a large Ki, high ones a small Ki. As for `CC(C)(C)NC(=O)[C@@H]1C[C@@H]2CCCC[C@@H]2CN1C[C@@H](O)[C@H](Cc1ccccc1)NC(=O)[C@H](CS(C)(=O)=O)NC(=O)c1ccc2ccccc2n1`, the Ratio in assay [1] is 195. This molecule also showed a pKi in assay [2] of 9.95. Also, in assay [3], the “CIC IC50” value was found to be 22 nM.

For the molecule `CSC(C)(C)[C@H](NC(=O)c1ccc2ccccc2n1)C(=O)N[C@@H](Cc1ccccc1)[C@H](O)CN1C[C@H]2CCCC[C@H]2C[C@H]1C(=O)NC(C)(C)C`, the Ratio in assay [1] turned out to be 10. The pKi in assay [2] was 8.59. For the same molecule, in assay [3], the “CIC IC50” value was 27 nM.

With `CC(C)(C)NC(=O)[C@@H]1C[C@@H]2CCCC[C@@H]2CN1C[C@@H](O)[C@H](Cc1ccccc1)NC(=O)[C@@H](NC(=O)OCc1ccccc1)C(C)(C)S(C)(=O)=O`, the Ratio in assay [1] worked out at 68. In assay [2], this molecule gave a pKi of 9.79. In addition, the “CIC IC50” value in assay [3] is 11 nM.

On to `CC(C)[C@H](NC(=O)c1ccc2ccccc2n1)C(=O)N[C@@H](Cc1ccccc1)[C@H](O)CN1C[C@H]2CCCC[C@H]2C[C@H]1C(=O)NC(C)(C)C`, for which the Ratio in assay [1] turned out to be 98. In addition, the pKi in assay [2] was 9.26. Also, the “CIC IC50” value in assay [3] is 54 nM.

Take `CC(C)(C)NC(=O)[C@@H]1C[C@@H]2CCCC[C@@H]2CN1C[C@@H](O)[C@H](Cc1ccccc1)NC(=O)[C@H](CC(N)=O)NC(=O)c1ccc2ccccc2n1`: the “CIC IC50” value in assay [3] is given as 23 nM.

Consider `CC(C)(C)NC(=O)[C@@H]1C[C@@H]2CCCC[C@@H]2CN1C[C@@H](O)[C@H](Cc1ccccc1)NC(=O)[C@@H](NC(=O)c1ccc2ccccc2n1)C(C)(C)S(C)(=O)=O`, for which the Ratio in assay [1] was 28. The pKi in assay [2] is 9.76. In assay [3], the “CIC IC50” value came out at 4.9 nM.
